Laboratory results taken from patent US10221173B2, “Chemical compounds” (AstraZeneca AB, priority 2017, dated 2019).
≈ marks a conversion by molar mass, not a printed value.

Experiments:
[1] = biological target: recombinant human Estrogen Receptor alpha ligand binding domain (ER alpha-LBD (GST)) (Homo sapiens (Human), UniProt P03372); assay: ERα binding assay (LanthaScreen TR-FRET competition)
[2] = biological target: T1, Estrogen Receptor (ERα) in MCF-7 cells (Homo sapiens (Human), UniProt P03372); assay: MCF-7 ER down-regulation assay (immuno-fluorescence); type: cell-based
T1 sequence (P03372 whole entry): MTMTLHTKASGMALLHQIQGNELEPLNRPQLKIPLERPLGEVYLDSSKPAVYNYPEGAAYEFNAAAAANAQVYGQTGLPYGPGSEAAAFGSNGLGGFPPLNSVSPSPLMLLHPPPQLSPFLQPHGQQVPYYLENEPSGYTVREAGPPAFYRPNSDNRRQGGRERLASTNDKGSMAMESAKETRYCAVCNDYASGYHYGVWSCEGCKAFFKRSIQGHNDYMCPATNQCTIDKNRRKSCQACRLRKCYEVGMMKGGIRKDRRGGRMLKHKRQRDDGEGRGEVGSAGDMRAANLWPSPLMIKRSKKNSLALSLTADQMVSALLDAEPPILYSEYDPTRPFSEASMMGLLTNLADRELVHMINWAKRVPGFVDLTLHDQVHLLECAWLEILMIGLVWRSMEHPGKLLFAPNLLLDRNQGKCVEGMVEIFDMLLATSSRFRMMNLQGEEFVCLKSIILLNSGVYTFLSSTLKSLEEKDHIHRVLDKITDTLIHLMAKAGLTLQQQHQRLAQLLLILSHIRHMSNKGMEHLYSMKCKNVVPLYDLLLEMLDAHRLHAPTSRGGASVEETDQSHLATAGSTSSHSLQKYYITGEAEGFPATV

[3] = biological target: estrogen receptor (ERα) in CAMA-1 cells (Homo sapiens (Human), UniProt P03372); assay: Western blotting assay, ER down-regulation in CAMA-1; type: cell-based; conditions: CAMA-1, 100 nM compound, 48 h, vs 100 nM fulvestrant
Chain of estrogen receptor (ERα) in CAMA-1 cells (P03372 whole entry): as above

[4] = biological target: T1, Estrogen Receptor (ERα) in MCF-7 cells; assay: Western blotting assay, ER down-regulation in MCF-7; type: cell-based; conditions: MCF-7, 100 nM compound, 48 h, vs 100 nM fulvestrant
[5] = Log D (shake flask, 1-octanol/aqueous buffer); type: physicochemical; conditions: 1-octanol/aqueous buffer, pH 7.4, pH 7.4
[6] = Thermodynamic solubility (shake-flask); type: physicochemical; conditions: aqueous phosphate buffer, 25 °C, pH 7.4, aqueous buffer, thermodynamic from solid, phosphate buffer pH 7.4, 24 hours
Description: The thermodynamic solubility of a research compound is measured under standard conditions. It is a shake-flask approach that uses 10 mM DMSO solutions which are supplied from the Compound Managements liquid store and is a high throughput method. The dried compounds are equilibrated in an aqueous phosphate buffer (pH 7.4) for 24 hours at 25° C., the portion with the dissolved compound is then separated from the remains. The solutions are analyzed and quantified using UPLC/MS/MS, QC-samples are incorporated in each assay-run to ensure the quality of the assay.

[7] = Human plasma protein binding (equilibrium dialysis); type: in vitro ADME
[8] = biological target: hERG potassium channel (Homo sapiens (Human), UniProt Q12809)
Chain of hERG potassium channel (Q12809 whole entry): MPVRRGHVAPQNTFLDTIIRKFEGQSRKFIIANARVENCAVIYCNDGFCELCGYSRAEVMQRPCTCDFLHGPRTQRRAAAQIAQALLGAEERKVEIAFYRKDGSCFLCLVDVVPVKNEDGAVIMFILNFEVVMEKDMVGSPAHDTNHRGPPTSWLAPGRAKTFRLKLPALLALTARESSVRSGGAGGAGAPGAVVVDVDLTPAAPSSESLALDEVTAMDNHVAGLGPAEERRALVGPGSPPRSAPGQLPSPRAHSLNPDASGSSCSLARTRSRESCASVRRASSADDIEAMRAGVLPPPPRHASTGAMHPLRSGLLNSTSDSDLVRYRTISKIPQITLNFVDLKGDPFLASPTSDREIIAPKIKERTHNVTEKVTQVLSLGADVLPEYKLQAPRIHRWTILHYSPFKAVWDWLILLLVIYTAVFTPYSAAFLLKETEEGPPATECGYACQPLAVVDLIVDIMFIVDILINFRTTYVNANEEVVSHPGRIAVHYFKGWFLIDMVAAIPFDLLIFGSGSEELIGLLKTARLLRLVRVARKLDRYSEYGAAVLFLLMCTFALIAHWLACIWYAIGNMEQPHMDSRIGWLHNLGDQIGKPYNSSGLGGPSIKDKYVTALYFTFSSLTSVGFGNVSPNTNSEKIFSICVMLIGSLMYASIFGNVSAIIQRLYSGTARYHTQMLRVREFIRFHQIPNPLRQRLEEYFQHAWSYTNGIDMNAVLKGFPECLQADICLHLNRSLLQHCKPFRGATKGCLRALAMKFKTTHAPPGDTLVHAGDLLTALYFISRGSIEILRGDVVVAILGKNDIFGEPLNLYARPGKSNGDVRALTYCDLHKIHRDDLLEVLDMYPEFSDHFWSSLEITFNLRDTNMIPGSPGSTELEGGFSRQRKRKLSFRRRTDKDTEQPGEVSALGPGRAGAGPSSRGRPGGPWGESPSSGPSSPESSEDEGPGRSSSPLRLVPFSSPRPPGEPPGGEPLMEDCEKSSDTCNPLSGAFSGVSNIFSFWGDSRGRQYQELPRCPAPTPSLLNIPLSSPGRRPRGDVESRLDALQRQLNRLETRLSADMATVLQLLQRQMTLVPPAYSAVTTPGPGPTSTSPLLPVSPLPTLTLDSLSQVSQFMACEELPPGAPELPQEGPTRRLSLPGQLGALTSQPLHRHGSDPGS
Description: The assay was conducted as follows with all reagents used at room temperature unless otherwise stated.
All compounds were acoustically dispensed in quadruplicate using a Labcyte Echo.
Calculation of results is performed using APC package within Genedata. For the routine normalization of well data with Neutral and Inhibitor control well groups as reference, GeneData Assay Analyzer uses the following equation to normalize the signal values to the desired signal range:
[formula] x is the measured raw signal value of a well is the median of the measured signal values for the Central Reference (Neutral) wells on a plate is the median of the measured signal values for the Scale Reference (Inhibitor) wells on a plate CR is the desired median normalized value for the Central Reference (Neutral) SR is the desired median normalized value for the Scale Reference (Inhibitor)

Chain of recombinant human Estrogen Receptor alpha ligand binding domain (ER alpha-LBD (GST)) (P03372 307-554): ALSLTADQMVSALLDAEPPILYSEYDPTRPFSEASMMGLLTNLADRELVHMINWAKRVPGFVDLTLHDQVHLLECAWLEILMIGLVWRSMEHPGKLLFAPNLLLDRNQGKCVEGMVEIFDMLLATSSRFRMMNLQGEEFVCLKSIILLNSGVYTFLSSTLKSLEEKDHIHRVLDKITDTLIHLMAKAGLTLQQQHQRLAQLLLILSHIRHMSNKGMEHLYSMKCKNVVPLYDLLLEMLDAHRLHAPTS

Row | SMILES | IC50 [1] [nM] | IC50 [2] [nM] | CAMA1 Western % ER deg vs Fv [3] [%] | MCF7 Western % ER deg vs Fv [4] [%] | logD [5] | solubility at 24 h [6] [µM] | Human plasma protein binding (% free) [7] [% free] | IC50 [8] [nM]
1 | C[C@@H]1Cc2c([nH]c3ccccc23)[C@@H](c2c(F)cnc(OCCNCCCF)c2Cl)N1CC(F)(F)CO [Example 111, 3-((1R,3R)-1-(3-chloro-5-fluoro-2-(2-((3-fluoropropyl)amino)ethoxy)pyridin-4-yl)-3-methyl-1,3,4,9-tetrahydro-2H-pyrido[3,4-b]indol-2-yl)-2,2-difluoropropan-1-ol] | 0.6 | 0.07 | 92 | 84 | 3.1 | 469 (≈ 248 µg/mL) | 1.4 | –
2 | C[C@@H]1Cc2c([nH]c3ccccc23)[C@@H](c2c(F)ccc(OCCNCCCF)c2F)N1C[C@H](C)C(=O)O [Example 58, (S)-3-((1R,3R)-1-(2,6-difluoro-3-(2-((3-fluoropropyl)amino)ethoxy)phenyl)-3-methyl-1,3,4,9-tetrahydro-2H-pyrido[3,4-b]indol-2-yl)-2-methylpropanoic acid] | – | – | 83 | 76 | – | > 1000 | – | –
3 | C[C@@H]1Cc2c([nH]c3ccccc23)[C@@H](c2c(F)cnc(OCCNCCCF)c2F)N1CC(F)(F)F [Example 107, N-(2-((3,5-difluoro-4-((1R,3R)-3-methyl-2-(2,2,2-trifluoroethyl)-2,3,4,9-tetrahydro-1H-pyrido[3,4-b]indol-1-yl)pyridin-2-yl)oxy)ethyl)-3-fluoropropan-1-amine] | 1.3 | 0.21 | 98 | 95 | 3.6 | 120 (≈ 60.1 µg/mL) | 1 | 8100
4 | CCc1ccc(OCCNCCCF)cc1[C@@H]1c2[nH]c3ccccc3c2C[C@@H](C)N1CC(F)(F)F [Example 21, N-(2-(4-ethyl-3-((1R,3R)-3-methyl-2-(2,2,2-trifluoroethyl)-2,3,4,9-tetrahydro-1H-pyrido[3,4-b]indol-1-yl)phenoxy)ethyl)-3-fluoropropan-1-amine] | 2.6 | 1.6 | 95 | 99 | 4.6 | 3 (≈ 1.47 µg/mL) | 0.10 | –
5 | C[C@@H]1Cc2c([nH]c3cc(F)ccc23)[C@@H](c2c(F)ccc(OCCNCCCF)c2F)N1CC(F)(F)CO [Example 61, 3-((1R,3R)-1-(2,6-difluoro-3-(2-((3-fluoropropyl)amino)ethoxy)phenyl)-7-fluoro-3-methyl-1,3,4,9-tetrahydro-2H-pyrido[3,4-b]indol-2-yl)-2,2-difluoropropan-1-ol] | 0.79 | 0.19 | 83 | 94 | 3 | 446 (≈ 236 µg/mL) | 2.0 | 2700
6 | C[C@@H]1Cc2c([nH]c3ccccc23)[C@@H](c2c(F)ccc(NCCNCCCF)c2F)N1CC(F)(F)F [Example 88, N1-(2,4-difluoro-3-((1R,3R)-3-methyl-2-(2,2,2-trifluoroethyl)-2,3,4,9-tetrahydro-1H-pyrido[3,4-b]indol-1-yl)phenyl)-N2-(3-fluoropropyl)ethane-1,2-diamine] | 2.2 | 0.28 | 93 | 90 | 3.4 | 118 (≈ 58.8 µg/mL) | 0.58 | 4800
7 | C[C@@H]1Cc2c([nH]c3ccccc23)[C@@H](c2c(F)ccc(OCCNCCCF)c2F)N1CC1(F)COC1 [Example 13, N-(2-(2,4-difluoro-3-((1R,3R)-2-((3-fluorooxetan-3-yl)methyl)-3-methyl-2,3,4,9-tetrahydro-1H-pyrido[3,4-b]indol-1-yl)phenoxy)ethyl)-3-fluoropropan-1-amine] | 1.6 | 0.22 | 92 | 83 | 2.6 | 493 (≈ 249 µg/mL) | 3.5 | 2600
8 | Cc1c(OCCNCCCF)ncc(F)c1[C@@H]1c2[nH]c3ccccc3c2C[C@@H](C)N1CC(F)(F)CO [Example 110, 2,2-difluoro-3-((1R,3R)-1-(5-fluoro-2-(2-((3-fluoropropyl)amino)ethoxy)-3-methylpyridin-4-yl)-3-methyl-1,3,4,9-tetrahydro-2H-pyrido[3,4-b]indol-2-yl)propan-1-ol] | 0.43 | 0.045 | 83 | 91 | 3.1 | 939 (≈ 478 µg/mL) | – | 2800
9 | Cc1ccc2[nH]c3c(c2c1)C[C@@H](C)N(CC(F)(F)CO)[C@@H]3c1c(F)ccc(OCCNCCCF)c1F [Example 63, 3-((1R,3R)-1-(2,6-difluoro-3-(2-((3-fluoropropyl)amino)ethoxy)phenyl)-3,6-dimethyl-1,3,4,9-tetrahydro-2H-pyrido[3,4-b]indol-2-yl)-2,2-difluoropropan-1-ol] | 1.1 | 0.32 | 85 | 94 | 3.1 | 273 (≈ 143 µg/mL) | 0.97 | 4700
10 | COc1ccc(OCCNCCCF)cc1[C@@H]1c2[nH]c3ccccc3c2C[C@@H](C)N1CC(F)(F)CO [Example 8, 2,2-Difluoro-3-((1R,3R)-1-(5-(2-((3-fluoropropyl)amino)ethoxy)-2-methoxyphenyl)-3-methyl-1,3,4,9-tetrahydro-2H-pyrido[3,4-b]indol-2-yl)propan-1-ol] | – | – | 93 | 98 | – | 617 (≈ 312 µg/mL) | – | –
11 | C[C@@H]1Cc2c([nH]c3ccccc23)[C@@H](c2cc(OCCNCCCF)ccc2Cl)N1CC(F)(F)F [Example 22, N-(2-(4-chloro-3-((1R,3R)-3-methyl-2-(2,2,2-trifluoroethyl)-2,3,4,9-tetrahydro-1H-pyrido[3,4-b]indol-1-yl)phenoxy)ethyl)-3-fluoropropan-1-amine] | 1.4 | 0.12 | 96 | 96 | 4.2 | 0.7 (≈ 0.349 µg/mL) | 0.61 | –
12 | C[C@@H]1Cc2c([nH]c3ccccc23)[C@@H](c2cccc(OCCNCCCF)c2)N1CC(F)(F)F [Example 16, 3-fluoro-N-(2-(3-((1R,3R)-3-methyl-2-(2,2,2-trifluoroethyl)-2,3,4,9-tetrahydro-1H-pyrido[3,4-b]indol-1-yl)phenoxy)ethyl)propan-1-amine] | – | – | 83 | 89 | – | 74 (≈ 34.3 µg/mL) | – | –
13 | COc1ccc(OCCNCCCF)cc1[C@@H]1c2[nH]c3ccccc3c2C[C@@H](C)N1CC1(F)COC1 [Example 4, 3-Fluoro-N-(2-(3-((1R,3R)-2-((3-fluorooxetan-3-yl)methyl)-3-methyl-2,3,4,9-tetrahydro-1H-pyrido[3,4-b]indol-1-yl)-4-methoxyphenoxy)ethyl)propan-1-amine] | – | – | 75 | 56 | – | 543 (≈ 271 µg/mL) | – | –
14 | C[C@@H]1Cc2c([nH]c3ccccc23)[C@@H](c2nccc(OCCNCCCF)c2F)N1CC(F)(F)F [Example 92, 3-fluoro-N-(2-((3-fluoro-2-((1S,3R)-3-methyl-2-(2,2,2-trifluoroethyl)-2,3,4,9-tetrahydro-1H-pyrido[3,4-b]indol-1-yl)pyridin-4-yl)oxy)ethyl)propan-1-amine] | 1.6 | 0.4 | 91 | 93 | 2.7 | 468 (≈ 226 µg/mL) | – | 23000
15 | C[C@@H]1Cc2c([nH]c3ccccc23)[C@@H](c2cccc(OCCNCCCF)c2)N1CC1(F)COC1 [Example 1, 3-Fluoro-N-(2-(3-((1R,3R)-2-((3-fluorooxetan-3-yl)methyl)-3-methyl-2,3,4,9-tetrahydro-1H-pyrido[3,4-b]indol-1-yl)phenoxy)ethyl)propan-1-amine] | – | – | 66 | 79 | – | 303 (≈ 142 µg/mL) | – | 4400
16 | COc1cnc(OCCNCCCF)cc1[C@@H]1c2[nH]c3ccccc3c2C[C@@H](C)N1CC(F)(F)F [Example 12, 3-fluoro-N-(2-((5-methoxy-4-((1R,3R)-3-methyl-2-(2,2,2-trifluoroethyl)-2,3,4,9-tetrahydro-1H-pyrido[3,4-b]indol-1-yl)pyridin-2-yl)oxy)ethyl)propan-1-amine] | 0.62 | 0.059 | 89 | 92 | – | – | – | 8200
17 | COc1ccc(OCCNCCCF)cc1[C@@H]1c2[nH]c3ccccc3c2C[C@@H](C)N1CC(F)F [Example 6, N-(2-(3-((1R,3R)-2-(2,2-difluoroethyl)-3-methyl-2,3,4,9-tetrahydro-1H-pyrido[3,4-b]indol-1-yl)-4-methoxyphenoxy)ethyl)-3-fluoropropan-1-amine] | – | – | 81 | 97 | – | 154 (≈ 73.2 µg/mL) | – | –
